Reference: patent publication US5770587A, “Antifungal agents” (Merck & Co., Inc., priority 1996, dated 1998)

What was measured:
Format in all cases: cell-based
Candida albicans (CA2) = assay: broth microdilution assay (MIC/MFC)
Procedure: (§1) In the microbroth dilution assay, microorganisms were selected by streaking a yeast culture on Sabouraud dextrose agar (SDA) incubating for 24-48 hours at 35°-37° C., thereafter selected 3 to 5 characteristic colonies and transferring to a fresh plate and incubating under similar conditions. From the regrowth, 3 to 5 colonies were selected and suspended in 10 milliliters of YM broth (Difco) and incubated for 4 hours at 35°-37° C. shaking at 225 rpm. The 4 hour broth cultures were adjusted optically to 86% transmission resulting in a concentration of 1-5×10^6 cfu/ml which was further diluted 1:100 in YNBD (yeast nitrogen base with 1 % dextrose) to obtain a concentration of 1-5×10^4 cfu/ml for use as inocula.
(§2) The test compounds, Compounds I and II, were dissolved at 512 μg/ml in 10% DMSO and diluted 2× into the first well to achieve a concentration of 256 μg/ml at 5% DMSO in the first well. Compounds are subsequently serially diluted 2× and cell suspension is added to each well resulting in an additional 2× dilution of compound. 75 μl of said solution is delivered to each well in column 1 of a 96-well, U-bottomed microtiter plate. The compounds in column 1 were then serially diluted two-fold to yield concentrations from 128 μg/ml to 0.06 μg/ml.
(§3) The plates containing the diluted compounds were then inoculated with 75 μl/well of the appropriate microorganism and incubated for 48 hours at 35°-37° C. with MIC (minimum inhibitory concentration) determinations carried out after 24 hours of incubation (except Cryptococcus strains which are read at 48 hours). Growth and sterility controls for each organism and sterility checks for the compounds also were carried out.
(§4) After recording MICs at 24 hours, the microtiter plates were shaken gently to resuspend the cells. A 1.5 μl sample was transferred from each well of the 96-well microtiter plate to a single reservoir inoculum plate containing SDA. The inoculated SDA and corresponding microtiter plates were incubated for 24 hours at 35°-37° C. For Cryptococcus neoformans, SDA plates were inoculated at 48 hours after recording MICs and incubated 48 hours before reading the MFC. MFC is the lowest concentration of compound at which either no growth or growth of ≤4 colonies occur.

[1] = tested on: Candida tropicalis (MY1124); assay: broth microdilution assay (MIC/MFC)
Procedure: as §1, §2, §3, §4

[2] = tested on: Candida pseudotropicalis (MY2099); assay: broth microdilution assay (MIC/MFC)
Procedure: as §1, §2, §3, §4

[3] = tested on: Candida tropicalis (MY1012); assay: broth microdilution assay (MIC/MFC)
Procedure: as §1, §2, §3, §4

[4] = tested on: Cryptococcus neoformans (MY2061); assay: broth microdilution assay (MIC/MFC)
Procedure: as §1, §2, §3, §4

[5] = tested on: Candida glabrata (MY1381); assay: broth microdilution assay (MIC/MFC)
Procedure: as §1, §2, §3, §4

[6] = tested on: Saccharomyces cerevisiae (MY2140); assay: broth microdilution assay (MIC/MFC)
Procedure: as §1, §2, §3, §4

[7] = tested on: Cryptococcus neoformans (MY2062); assay: broth microdilution assay (MIC/MFC)
Procedure: as §1, §2, §3, §4

[8] = tested on: Candida albicans (MY1055); assay: broth microdilution assay (MIC/MFC)
Procedure: as §1, §2, §3, §4

[9] = tested on: Candida parapsilosis (MY1010); assay: broth microdilution assay (MIC/MFC); conditions: 24 h, 35-37° C.
Procedure: as §1, §2, §3, §4

[10] = tested on: Saccharomyces cerevisiae (MY2141); assay: broth microdilution assay (MIC/MFC)
Procedure: as §1, §2, §3, §4

[11] = tested on: Candida guillermondii (MY1019); assay: broth microdilution assay (MIC/MFC)
Procedure: as §1, §2, §3, §4

[12] = tested on: Candida albicans (CLY539); assay: broth microdilution assay (MIC/MFC)
Procedure: as §1, §2, §3, §4

panel of fungi = assay: broth microdilution assay against a panel of fungi, comparison with amphotericin B; conditions: MIC and MFC against a panel of fungi
Procedure: as §1, with “inocula. […]” for “inocula.”
(§5) The plates containing the diluted compounds were then inoculated with 75 μl/well of the appropriate microorganism and incubated for 48 hours at 35°-37° C. with MIC (minimum inhibitory concentration) determinations carried out after 24 hours of incubation (except Cryptococcus strains which are read at 48 hours). […]
(§6) After recording MICs at 24 hours, the microtiter plates were shaken gently to resuspend the cells. […] For Cryptococcus neoformans, SDA plates were inoculated at 48 hours after recording MICs and incubated 48 hours before reading the MFC. […]

[13] = tested on: Aspergillus fumigatus (MY5668); assay: broth microdilution assay (MIC)
Procedure: as §1, with “inocula. […]” for “inocula.”
as §5, §6

[14] = tested on: Aspergillus fumigatus (MY4839); assay: broth microdilution assay (MIC)
Procedure: as §1, with “inocula. […]” for “inocula.”
as §5, §6

[15] = tested on: Aspergillus flavus, Fusarium oxysporum, Ustilago zeae and the like; assay: agar plate inhibition zone test, filamentous fungi; conditions: agar plates, 28° C. or 37° C., 24 hours, inhibition zones
[16] = SDA incubated 48 h, no growth or ≤4 colonies

CC(C)C1CCC2C1(C)CCC1(C)C3=CCC4C(C)(C(=O)O)C(O)C(O)C(O)C4(C(=O)O)C3CCC21C (centres unmarked) [Compound II]
Minimum Inhibitory Concentration (MIC) (Candida albicans (CA2); 24 h, 35-37° C.): 8 µg/mL
Minimum Fungicidal Concentration (MFC) (Candida albicans (CA2); no growth or ≤4 colonies): 8 µg/mL
Minimum Inhibitory Concentration (MIC) ([1]; 24 h, 35-37° C.): 8 µg/mL
Minimum Fungicidal Concentration (MFC) ([1]; no growth or ≤4 colonies): 8 µg/mL
Minimum Inhibitory Concentration (MIC) ([2]; 24 h, 35-37° C.): 4 µg/mL
Minimum Fungicidal Concentration (MFC) ([2]; no growth or ≤4 colonies): 4 µg/mL
Minimum Inhibitory Concentration (MIC) ([3]; 24 h, 35-37° C.): 4 µg/mL
Minimum Fungicidal Concentration (MFC) ([3]; no growth or ≤4 colonies): 8 µg/mL
Minimum Fungicidal Concentration (MFC) [4, 16]: 4 µg/mL
Minimum Inhibitory Concentration (MIC) ([4]; read at 48 h, 35-37° C.): 4 µg/mL
Minimum Inhibitory Concentration (MIC) ([5]; 24 h, 35-37° C.): 8 µg/mL
Minimum Fungicidal Concentration (MFC) ([5]; no growth or ≤4 colonies): 8 µg/mL
Minimum Inhibitory Concentration (MIC) ([6]; 24 h, 35-37° C.): 4 µg/mL
Minimum Fungicidal Concentration (MFC) ([6]; no growth or ≤4 colonies): 4 µg/mL
Minimum Fungicidal Concentration (MFC) [7, 16]: 4 µg/mL
Minimum Inhibitory Concentration (MIC) ([7]; read at 48 h, 35-37° C.): 4 µg/mL
Minimum Inhibitory Concentration (MIC) ([8]; 24 h, 35-37° C.): 8 µg/mL
Minimum Fungicidal Concentration (MFC) ([8]; no growth or ≤4 colonies): 8 µg/mL
Minimum Inhibitory Concentration (MIC) [9]: 32 µg/mL
Minimum Inhibitory Concentration (MIC) ([10]; 24 h, 35-37° C.): 4 µg/mL
Minimum Fungicidal Concentration (MFC) ([10]; no growth or ≤4 colonies): 4 µg/mL
Minimum Inhibitory Concentration (MIC) ([11]; 24 h, 35-37° C.): > 128 µg/mL
Minimum Fungicidal Concentration (MFC) ([11]; no growth or ≤4 colonies): > 128 µg/mL
Minimum Inhibitory Concentration (MIC) ([12]; 24 h, 35-37° C.): 8 µg/mL
Minimum Fungicidal Concentration (MFC) ([12]; no growth or ≤4 colonies): 8 µg/mL
effective concentrations compared with amphotericin B (panel of fungi): effective at concentrations comparable to an established antifungal agent, amphotericin B
Minimum Inhibitory Concentration (MIC) [13]: > 128 µg/mL
Minimum Inhibitory Concentration (MIC) [14]: 8 µg/mL
inhibition of growth of filamentous fungi [15]: effectively inhibit growth of the fungal organisms
